# Measurements: patent EP1984014B1, “USE OF TPO PEPTIDE COMPOUNDS AND PHARMACEUTICAL COMPOSITIONS IN THE TREATMENT OF ANEMIA” (Janssen Pharmaceutica NV, priority 2006, dated 2007)
# pEC50: −log10 of the molar value.
# Legend:
# [1] = tested on: mice treated with carboplatin; experiment: Example 2: dosing seven days before and/or 1 hour after carboplatin, hematological parameters in mice; type: in vivo, BALB/c mouse
# Description: (§1) The effects of PEGylated TPO Compound No. 1 on mice treated with carboplatin were observed. For all examples herein, a 10 mg/ml stock solution of PEGylated TPO Compound No. 1 was prepared in sterile saline. For mixing, the preparation was placed on a gyratory shaker for 15min. at 200 rpm. This method was used to dissolve PEGylated TPO Compound No. 1 without foaming. The stock was filtered using a GV Millex (0.22um) filter. Dosing solutions were then prepared from this stock using sterile saline. The stock and dosing solutions were prepared fresh on the day of use.
# The possibility that PEGylated TPO Compound No. 1 may sensitize bone marrow hematopoietic stem cells of mice to the toxic effects of carboplatin treatment was examined. For this study, a dose of PEGylated TPO Compound No. 1 was administered to the mice seven days prior to the carboplatin dose or immediately after carboplatin treatment. An additional group was treated with PEGylated TPO Compound No. 1 both prior to and after carboplatin administration. The effect of these dosing regimens on hematological parameters was also observed.
# (§2) The groups of mice were treated with either carboplatin or vehicle (Phosphate Buffered Saline, PBS) by ip administration on Days 7 and 8 as delineated below. The optimal dose of carboplatin used to induce thrombocytopenia in the BALB/c mouse strain was previously determined to be a fractionated total dose of 120mg/kg given as two consecutive daily injections (i.e., 2x60mg/kg). Seven days prior to the first carboplatin dose or one (1) hour after the second dose of carboplatin, groups of mice were treated with PEGylated TPO Compound No. 1 (300ug/kg) or vehicle (sterile saline, SS, preservative-free 0.9% sodium chloride) by IV (bolus) injection as delineated in Table 2. An additional group was treated with PEGylated TPO Compound No. 1 both before (Day 0) and after (Day 8, t=1h) the carboplatin dose. All dosing was performed on a per-weight basis (100ul/10g body weight).
# (§3) On Days 14, 18, 22 and 26, five mice in each test group were weighed and then euthanised using CO2-asphyxiation and exsanguination via cardiac puncture. The blood samples were transferred to separate EDTA (lavender-top) microcontainers for hematological evaluation. Groups of control mice (5) were processed on Days 14 and 26. The data are presented graphically as group means + SEM.
# [2] = tested on: mice treated with carboplatin; experiment: Example 3: dosing 1 hour, 1 day or 4 days after carboplatin, anemia in mice; type: in vivo, BALB/c mouse
# Description: as §1
# The effect of PEGylated TPO Compound No. 1 on the duration and severity of anemia following dosing regimens in which PEGylated TPO Compound No. 1 is administered at various times following the carboplatin treatment was observed. For this study, an amount of PEGylated TPO Compound No. 1 was administered to mice, one (1) hour, one (1) day or four (4) days following a carboplatin dose.
# as §2, with “-1” for “7”, “0” for “8”, “One hour (Day 0), one day (Day 1) or four” for “Seven”, “(Day 4) following” for “prior to the first carboplatin dose or one (1) hour after”, “3. The dose” for “2. An additional group”, “administered” for “treated with PEGylated TPO Compound No. 1 both before (Day 0) and after (Day 8, t=1h) the carboplatin dose. All dosing was performed”
# as §3, with “6, 8, 10 & 12,” for “14, 18, 22 and 26,”, “exsanguinations” for “exsanguination”, “6 & 12.” for “14 and 26.”
# [3] = target: T1, human TPO receptor, c-mpl (hTPOr) (Homo sapiens, UniProt P40238); experiment: Example 7: Baf/3 hTPOr fos/lux luciferase reporter assay (relative luminescent units); type: cell-based
# T1 construct: expressed in transfected cells
# T1 sequence (P40238 26-635): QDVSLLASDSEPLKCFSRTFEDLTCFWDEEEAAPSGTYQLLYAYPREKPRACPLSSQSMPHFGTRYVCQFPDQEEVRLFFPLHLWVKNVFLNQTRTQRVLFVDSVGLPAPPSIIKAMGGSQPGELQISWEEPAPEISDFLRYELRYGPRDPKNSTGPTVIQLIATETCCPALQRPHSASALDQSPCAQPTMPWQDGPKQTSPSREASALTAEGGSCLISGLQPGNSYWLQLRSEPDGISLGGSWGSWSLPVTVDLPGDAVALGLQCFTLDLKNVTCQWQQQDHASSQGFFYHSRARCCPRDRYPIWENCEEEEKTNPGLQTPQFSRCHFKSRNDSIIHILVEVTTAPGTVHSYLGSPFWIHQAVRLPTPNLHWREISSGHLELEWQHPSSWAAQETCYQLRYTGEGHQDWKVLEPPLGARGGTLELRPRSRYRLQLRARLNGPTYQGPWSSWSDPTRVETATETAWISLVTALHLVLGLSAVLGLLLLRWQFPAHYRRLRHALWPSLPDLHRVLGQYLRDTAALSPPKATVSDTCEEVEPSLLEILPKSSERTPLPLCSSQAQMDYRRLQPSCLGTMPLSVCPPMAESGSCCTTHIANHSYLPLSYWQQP
# Text: The activity of the peptide compounds can be determined using standard relative luminescent units assay techniques. The assay employs, e.g., murine cells engineered to stably express the human TPO receptor and a luciferase reporter construct driven by the fos promoter. The assay may be performed as follows: Serum deprived Baf/3 hTPOr fos/lux cells expressing the human TPO receptor, c-mpl (hTPOr), and a luciferase reporter construct are exposed to increasing concentrations of either rhTPO or peptide compound for approximately 18 hours. Cells are then incubated in a medium containing a luciferase substrate and the luminescence of the cells is measured using a luminometer.
substance,measurement,setting,value
Methoxypolyethyleneglycol20000-propionyl-L-Isoleucyl-L-Glutamyl-Glycyl-L-Prolyl-L-Threonyl-L-Leucyl-L-Arginyl-L-Glutaminyl-L-2-Naphthylalanyl-L-Leucyl-L-Alanyl-L-Alanyl-L-Arginyl-Sarcosyl-Ne-(methoxypolyethyleneglycol20000-propionyl-L-Isoleucyl-L-Glutamyl-Glycyl-L-Prolyl-L-Threonyl-L-Leucyl-L-Arginyl-L-Glutaminyl-L-2-Naphthylalanyl-L-Leucyl-L-Alanyl-L-Alanyl-L-Arginyl-Sarcosyl-)-Lysinamide [PEGylated TPO Compound No. 1],carboplatin-induced changes in erythrocyte parameters,"[1]; 300ug/kg iv on Day 0 (only), seven days prior to carboplatin",failed to affect
same,"decreases in hemoglobin levels, RBC counts and hematocrits caused by carboplatin",[1]; 300ug/kg iv on Day 8 (1 hour after the second carboplatin treatment) only,prevented
same,"decreases in hemoglobin levels, RBC counts and hematocrits caused by carboplatin",[1]; 300ug/kg iv on Day 8 with an additional dose on Day 0,prevented
same,body weight loss between Days 7 and 26,"[1]; co-treatment, all regimens, no statistical analysis",prevented this weight loss
same,"onset of signs (hunching, unkempt)",[1]; treatment on Day 8 without or with additional treatment on Day 0,appeared to delay the onset of these signs
same,"severity and duration of signs (hunching, unkempt)",[1]; treatment on Days 0 and 8,decreased the severity and duration
same,time of dosing after chemotherapy at which prevention of carboplatin-induced anemia is observed,[2]; 300ug/kg iv,≤ 24 h
same,"decreases in hemoglobin levels, RBC counts and hematocrits caused by carboplatin",[2]; 300ug/kg iv on Day 0 (1 hour after carboplatin treatment),prevented
same,"decreases in hemoglobin levels, RBC counts and hematocrits caused by carboplatin",[2]; 300ug/kg iv on Day 1,prevented
same,carboplatin-induced changes in erythrocyte parameters,[2]; 300ug/kg iv on Day 4,failed to affect
same,"onset, frequency or severity of signs (hunched, flaccid)","[2]; 300ug/kg iv, no detailed analysis",did not appear to have a dramatic effect
same,weight loss associated with carboplatin treatment,"[2]; administration on Day 0, Day 1 or Day 4, no statistical analysis",did not appear to affect the weight loss
same,pEC50,"[3]; Baf/3 cells recombinantly expressing human TPO-R, approximately 18 hours",~11.30
same,activation of TPO-R compared with TPO,[3]; at the same concentration as TPO,stronger activation
same,activation of Baf/3 cells recombinantly expressing human TPO-R,[3]; increasing concentrations,dose dependent
